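Assay format: 96-well plates, 48-hour exposure. TGI: concentration producing complete growth inhibition.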
What was measured:
Experiment in all cases: growth of human tumour cells (NCI), 48 h
HCT-116 colon = test system: HCT-116 colon
SR leukemia = test system: SR leukemia
U251 CNS = test system: U251 CNS
OVCAR-8 ovarian = test system: OVCAR-8 ovarian
HS 578T breast = test system: HS 578T breast
PC-3 prostate = test system: PC-3 prostate
CAKI-1 renal = test system: CAKI-1 renal
NCI-H522 lung = test system: NCI-H522 lung
HCC-2998 colon = test system: HCC-2998 colon
RXF 393 renal = test system: RXF 393 renal
NCI/ADR-RES ovarian = test system: NCI/ADR-RES ovarian
MDA-MB-435 = test system: MDA-MB-435
BT-549 breast = test system: BT-549 breast
MDA-MB-231 breast = test system: MDA-MB-231 breast
COLO 205 colon = test system: COLO 205 colon
A498 renal = test system: A498 renal
UACC-62 melanoma = test system: UACC-62 melanoma
OVCAR-5 ovarian = test system: OVCAR-5 ovarian
SW-620 colon = test system: SW-620 colon
M14 melanoma = test system: M14 melanoma
HCT-15 colon = test system: HCT-15 colon
MCF7 breast = test system: MCF7 breast
T-47D breast = test system: T-47D breast
SF-268 CNS = test system: SF-268 CNS
NCI-H226 lung = test system: NCI-H226 lung
SN12C renal = test system: SN12C renal
SK-MEL-28 melanoma = test system: SK-MEL-28 melanoma
MOLT-4 leukemia = test system: MOLT-4 leukemia
SF-295 CNS = test system: SF-295 CNS
MDA-N = test system: MDA-N
MALME-3M melanoma = test system: MALME-3M melanoma
SK-OV-3 ovarian = test system: SK-OV-3 ovarian
OVCAR-4 ovarian = test system: OVCAR-4 ovarian
SNB-19 CNS = test system: SNB-19 CNS
UACC-257 melanoma = test system: UACC-257 melanoma
TK-10 renal = test system: TK-10 renal
IGROV1 ovarian = test system: IGROV1 ovarian
UO-31 renal = test system: UO-31 renal
RPMI-8226 leukemia = test system: RPMI-8226 leukemia
EKVX NSCLC = test system: EKVX NSCLC
ACHN renal = test system: ACHN renal
LOX IMVI melanoma = test system: LOX IMVI melanoma
A549 NSCLC = test system: A549 NSCLC
NCI-H460 lung = test system: NCI-H460 lung
DU-145 prostate = test system: DU-145 prostate
HOP-62 NSCLC = test system: HOP-62 NSCLC
SF-539 CNS = test system: SF-539 CNS
HOP-92 NSCLC = test system: HOP-92 NSCLC
HT29 colon = test system: HT29 colon
OVCAR-3 ovarian = test system: OVCAR-3 ovarian
KM12 colon = test system: KM12 colon
CCRF-CEM leukemia = test system: CCRF-CEM leukemia
786-0 renal = test system: 786-0 renal

COc1ccc2[nH]c(S(=O)(=O)N3CC(CCl)c4ccc(N)cc43)cc2c1 (stereo not drawn)
TGI (HCT-116 colon): > 31.8 µM | TGI (SR leukemia): 16.9 µM | TGI (U251 CNS): > 70.5 µM | TGI (OVCAR-8 ovarian): 19.4 µM | TGI (HS 578T breast): 16.5 µM | TGI (PC-3 prostate): 16.6 µM | TGI (CAKI-1 renal): 19.9 µM | TGI (NCI-H522 lung): 10.1 µM | TGI (HCC-2998 colon): 14.9 µM | TGI (RXF 393 renal): 29.4 µM | TGI (NCI/ADR-RES ovarian): 18.6 µM | TGI (MDA-MB-435): 3.35 µM | TGI (BT-549 breast): 27.6 µM | TGI (MDA-MB-231 breast): 26.9 µM | TGI (COLO 205 colon): 53.3 µM | TGI (A498 renal): 17.6 µM | TGI (UACC-62 melanoma): 25.4 µM | TGI (OVCAR-5 ovarian): 35.2 µM | TGI (SW-620 colon): > 100 µM | TGI (M14 melanoma): 16.6 µM | TGI (HCT-15 colon): 26.4 µM | TGI (MCF7 breast): > 100 µM | TGI (T-47D breast): > 100 µM | TGI (SF-268 CNS): 14.1 µM | TGI (NCI-H226 lung): 20.1 µM | TGI (SN12C renal): 16.5 µM | TGI (SK-MEL-28 melanoma): 68.2 µM | TGI (MOLT-4 leukemia): 18.4 µM | TGI (SF-295 CNS): 2.27 µM | TGI (MDA-N): < 0.0189 µM | TGI (MALME-3M melanoma): 27.6 µM | TGI (SK-OV-3 ovarian): 38.3 µM | TGI (OVCAR-4 ovarian): 35.3 µM | TGI (SNB-19 CNS): > 100 µM | TGI (UACC-257 melanoma): 67.5 µM | TGI (TK-10 renal): > 82.3 µM | TGI (IGROV1 ovarian): 24.2 µM | TGI (UO-31 renal): 4 µM | TGI (RPMI-8226 leukemia): 22 µM | TGI (EKVX NSCLC): 52.6 µM | TGI (ACHN renal): 49.5 µM | TGI (LOX IMVI melanoma): 17.7 µM | TGI (A549 NSCLC): 36 µM | TGI (NCI-H460 lung): 14.2 µM | TGI (DU-145 prostate): > 37.4 µM | TGI (HOP-62 NSCLC): 28.6 µM | TGI (SF-539 CNS): 12.7 µM | TGI (HOP-92 NSCLC): 63.4 µM | TGI (HT29 colon): 4.69 µM | TGI (OVCAR-3 ovarian): 25.8 µM | TGI (KM12 colon): 3.86 µM | TGI (CCRF-CEM leukemia): > 50.7 µM | TGI (786-0 renal): 14.7 µM
